Laboratory results as given in US7018987B1 (priority 1998, dated 2006).
Converted amounts (≈) assume the structure as drawn. Like-named read-outs stand apart in the source and are kept apart here.

Tests used:
SW1736 = assay type: cell-based, Human
DU-145 = assay type: cell-based, Human
Micrococcus luteus = assay: Disk susceptibility testing, Micrococcus luteus; assay type: cell-based
NCI-H460 = assay type: cell-based, Human
BXPC-3 = assay type: cell-based, Human
FADU = assay type: cell-based, Human
SK-N-SH = assay type: cell-based, Human
[1] = tested on: P388 lymphocytic leukemia; assay type: cell-based, Murine
Escherichia coli = conditions: disk susceptibility
Enterobacter cloacae = conditions: disk susceptibility
[2] = tested on: Stenotrophomonas maltophilia; conditions: disk susceptibility
Staphylococcus aureus = conditions: disk susceptibility
Streptococcus pneumoniae = conditions: disk susceptibility
Enterococcus faecalis = conditions: disk susceptibility
[3] = tested on: eight bacteria and two fungi tested; assay: Disk susceptibility testing, whole microbe panel; assay type: cell-based; conditions: disk susceptibility, bacteria and fungi tested
Neisseria gonorrhoeae = assay type: cell-based
tubulin = conditions: reported (Lin et al., 1988); cited from earlier work
full-panel NCl screen = conditions: read-out: mean panel GI50 concentration; cited from earlier work
SK-Mel-3 = assay type: cell-based, Human
Solubility in water = conditions: mg per 1 ml water at 25° C.
Cryptococcus neoformans = assay: Disk susceptibility testing, Cryptococcus neoformans; assay type: cell-based
Candida albicans = assay: Disk susceptibility testing, Candida albicans; assay type: cell-based
[4] = murine P-388 leukemia, 48 hours
[5] = Neisseria gonorrhoeae, disk susceptibility

| Compound | GI50 Thyroid SW1736 (SW1736; SW1736, 48 hours) [µg/mL] | GI50 Prostate DU-145 (DU-145; DU-145, 48 hours) [µg/mL] | Minimum inhibitory amount per disk (Micrococcus luteus) | GI50 Lung-NSC NCI-H460 (NCI-H460; NCI-H460, 48 hours) [ng/mL] | GI50 Pancreas BXPC-3 (BXPC-3; BXPC-3, 48 hours) [µg/mL] | GI50 Pharynx FADU (FADU; FADU, 48 hours) [ng/mL] | GI50 Neuroblast SK-N-SH (SK-N-SH; SK-N-SH, 48 hours) [ng/mL] | ED50 P-388 [1, 4] [µg/mL] | antimicrobial growth inhibition (in words) [3] | Minimum inhibitory amount per disk (Neisseria gonorrhoeae; [5]) | other results |
| --- | --- | --- | --- | --- | --- | --- | --- | --- | --- | --- | --- |
| COc1ccc(/C=C/c2cc(OC)c(OC)c(OC)c2)cc1O [Compound 4a, (E)-combretastatin A-4] | 0.080 (≈ 0.253 µM) | 0.037 (≈ 0.117 µM) | 25–50 μg/disk | 38 (≈ 0.12 µM) | 3.9 (≈ 12.3 µM) | 40 (≈ 0.126 µM) | 29 (≈ 0.0917 µM) | 0.280 (≈ 0.885 µM) |  |  |  |
| CN(C)C1C(=O)C(C(N)=O)=C(O)C2(O)C(=O)C3=C(O)c4c(O)cccc4C(C)(O)C3CC12.COc1ccc(C=Cc2cc(OC)c(OC)c(OC)c2)cc1OP(=O)(O)O (stereo not shown) [Compound 5r, Tetracycline combretastatin A-4 3-O-phosphate] | 0.012 | 0.058 | 0.78–1.56 μg/disk | 4.6 | 0.57 | 5.5 | 3.2 | 0.037 | inhibited the growth of all Gram-negative and Gram-positive bacteria tested | 3.12–6.25 μg/disk | Minimum inhibitory concentration (Escherichia coli): 3.12–6.25 μg/disk; Minimum inhibitory concentration (Enterobacter cloacae): 3.12–6.25 μg/disk; Minimum inhibitory concentration [2]: 6.25–12.5 μg/disk; Minimum inhibitory concentration (Staphylococcus aureus): 0.195–0.39 μg/disk; Minimum inhibitory concentration (Streptococcus pneumoniae): 0.195–0.39 μg/disk; Minimum inhibitory concentration (Enterococcus faecalis): 25–50 μg/disk |
| Combretastatin A-4 [Compound 1a, reference compound] |  |  |  |  |  |  |  |  |  |  | GI50 Thyroid SW1736 (SW1736): 0.00071 µg/mL; GI50 Prostate DU-145 (DU-145): 0.00076 µg/mL; inhibition at the colchicine binding site of tubulin (tubulin): 97%; GI50 (full-panel NCl screen): 6.61 nM; GI50 Lung-NSC NCI-H460 (NCI-H460): 0.56 ng/mL; GI50 Melanoma SK-Mel-3 (SK-Mel-3): 0.2 ng/mL; Minimum inhibitory amount per disk (Neisseria gonorrhoeae): 25–50 μg/disk; growth inhibition of Neisseria gonorrhoeae (in words) (Neisseria gonorrhoeae): inhibited growth; GI50 Pancreas BXPC-3 (BXPC-3): >0.1 µg/mL; GI50 Pharynx FADU (FADU): 0.65 ng/mL; GI50 Neuroblast SK-N-SH (SK-N-SH): 0.26 ng/mL; ED50 P-388 [1]: 0.00266 µg/mL |
| Manganese combretastatin A-4 3′-O-phosphate [Compound 5e] | 14.7 | <0.001 |  | 1.5 | 0.20 | 0.91 | 14 | 0.016 | inhibitory to opportunistic fungi | 6.25–12.5 μg/disk | Solubility (Solubility in water): 3 mg/mL; Minimum inhibitory concentration (Cryptococcus neoformans): 12.5–25 μg/disk; GI50 Melanoma SK-Mel-3 (SK-Mel-3; SK-Mel-3, 48 hours): 3.6 ng/mL; Minimum inhibitory concentration (Candida albicans): 25–50 μg/disk |
